Data reported in PMC9897788, “Design, synthesis and cytotoxic evaluation of novel bis-thiazole derivatives as preferential Pim1 kinase inhibitors with in vivo and in silico study” (Journal of Enzyme Inhibition and Medicinal Chemistry, 2023).

Experiments:
Experiment in all cases: NCI 60 cell one-dose screening (SRB)
Format in all cases: cell-based
ACHN = conditions: Homo sapiens, Renal Cancer, single dose 10 µM, 48 h, read-out: Percentage of cellular growth inhibition
Method: (§1) The 60 cancerous cell panel screening was performed following the Developmental Therapeutics Program (DTP) of the National Cancer Institute (NIH-NCI), USA. A single dose of 10 µM was used to perform the screening at 48 h incubation and the results were achieved as cancerous cell growth percentage relative to the no-drug control that was converted to an inhibition percentage by subtracting from 100.The cancerous cell lines were grown in RPMI 1640 medium containing 5% foetal bovine serum and 2 mM L-glutamine at 37 °C, 5% CO2, 95% air and 100% relative humidity for 24 h prior to addition of the tested compounds. After 24 h, two plates of each cell line were fixed in situ with TCA to represent a measurement of the cell population for each cell line at the time of drug addition (Tz). Compounds were dissolved in DMSO at 400-fold the desired final maximum test concentration and stored frozen prior to use. At the time of drug addition, an aliquot of frozen concentrate was thawed and diluted to twice the desired final maximum test concentration with complete medium containing 50 µg/mL gentamicin. Aliquots of 100 µL of the compounds dilution was added to the appropriate micro titre wells already containing 100 µL of medium, resulting in the required final drug concentrations of 10 µM. Following compounds addition, the plates were incubated for an additional 48 h at 37 °C, 5% CO2, 95% air, and 100% relative humidity. For adherent cells, the assay was terminated by the addition of cold TCA. Cells were fixed in situ by the gentle addition of 50 µL of cold 50% (w/v) TCA (final concentration, 10% TCA) and incubated for 60 min at 4 °C. The supernatant was discarded, and the plates were washed five times with tap water and air dried. Sulphorhodamine B (SRB) solution (100 µL) at 0.4% (w/v) in 1% acetic acid is added to each well, and plates are incubated for 10 min at room temperature. After staining, unbound dye was removed by washing five times with 1% acetic acid and the plates were air dried. Bound stain was subsequently solubilised with 10 mM trizma base, and the absorbance was read on an automated plate reader at a wavelength of 515 nm. For suspension cells, the methodology was the same except that the assay was terminated by fixing settled cells at the bottom of the wells by gently adding 50 µL of 80% TCA (final concentration, 16% TCA). Using the seven absorbance measurements [time zero, (Tz), control growth, I, and test growth in the presence of drug at the five concentration levels (Ti)], the percentage growth was calculated as: [(Ti−Tz)/(C−Tz)]×100 for concentrations for which Ti>/=Tz [(Ti−Tz)/Tz]×100 for concentrations for which Ti<Tz.

CAKI-1 = conditions: Homo sapiens; CAKI-1, Renal Cancer; single dose 10 µM, 48 h; read-out: Percentage of cellular growth inhibition
Method: as §1

CCRF-CEM = conditions: Homo sapiens, Leukemia, single dose 10 µM, 48 h, read-out: Percentage of cellular growth inhibition
Method: as §1

COLO 205 = conditions: Homo sapiens; COLO 205, Colon Cancer; single dose 10 µM, 48 h; read-out: Percentage of cellular growth inhibition
Method: as §1

HCT-15 = conditions: Homo sapiens; HCT-15, Colon Cancer; single dose 10 µM, 48 h; read-out: Percentage of cellular growth inhibition
Method: as §1

HL-60(TB) = conditions: Homo sapiens, Leukemia, single dose 10 µM, 48 h, read-out: Percentage of cellular growth inhibition
Method: as §1

HOP-92 = conditions: Homo sapiens, HOP-92, 48 h, HOP-92, Non-Small Cell Lung Cancer, single dose 10 µM, read-out: Percentage of cellular growth inhibition
Method: as §1

HS 578T = conditions: Homo sapiens, Breast Cancer, single dose 10 µM, 48 h, read-out: Percentage of cellular growth inhibition
Method: as §1

MDA-MB-231/ATCC = conditions: Homo sapiens, Breast Cancer, single dose 10 µM, 48 h, read-out: Percentage of cellular growth inhibition
Method: as §1

MDA-MB-468 = conditions: Homo sapiens; MDA-MB-468, Breast Cancer; single dose 10 µM, 48 h; read-out: Percentage of cellular growth inhibition
Method: as §1

MOLT-4 = conditions: Homo sapiens; MOLT-4, Leukemia; single dose 10 µM, 48 h; read-out: Percentage of cellular growth inhibition
Method: as §1

NCI-H322M = conditions: Homo sapiens, Non-Small Cell Lung Cancer, single dose 10 µM, 48 h, read-out: Percentage of cellular growth inhibition
Method: as §1

PC-3 = conditions: Homo sapiens; PC-3, Prostate Cancer; single dose 10 µM, 48 h; read-out: Percentage of cellular growth inhibition
Method: as §1

RPMI-8226 = conditions: Homo sapiens; RPMI-8226, Leukemia; single dose 10 µM, 48 h; read-out: Percentage of cellular growth inhibition
Method: as §1

SK-MEL-28 = conditions: Homo sapiens; SK-MEL-28, Melanoma; single dose 10 µM, 48 h; read-out: Percentage of cellular growth inhibition
Method: as §1

SK-MEL-5 = conditions: Homo sapiens; SK-MEL-5, Melanoma; single dose 10 µM, 48 h; read-out: Percentage of cellular growth inhibition
Method: as §1

SNB-19 = conditions: Homo sapiens; SNB-19, CNS Cancer; single dose 10 µM, 48 h; read-out: Percentage of cellular growth inhibition
Method: as §1

SW-620 = conditions: Homo sapiens; SW-620, Colon Cancer; single dose 10 µM, 48 h; read-out: Percentage of cellular growth inhibition
Method: as §1

TK-10 = conditions: Homo sapiens; TK-10, Renal Cancer; single dose 10 µM, 48 h; read-out: Percentage of cellular growth inhibition
Method: as §1

UACC-257 = conditions: Homo sapiens; UACC-257, Melanoma; single dose 10 µM, 48 h; read-out: Percentage of cellular growth inhibition
Method: as §1

UACC-62 = conditions: Homo sapiens; UACC-62, Melanoma; single dose 10 µM, 48 h; read-out: Percentage of cellular growth inhibition
Method: as §1

SMILES	inhibition at 10 µM (ACHN) [%]	inhibition at 10 µM (CAKI-1) [%]	inhibition at 10 µM (CCRF-CEM) [%]	inhibition at 10 µM (COLO 205) [%]	inhibition at 10 µM (HCT-15) [%]	inhibition at 10 µM (HL-60(TB)) [%]	inhibition at 10 µM (HOP-92) [%]	inhibition at 10 µM (HS 578T) [%]	inhibition at 10 µM (MDA-MB-231/ATCC) [%]	inhibition at 10 µM (MDA-MB-468) [%]	inhibition at 10 µM (MOLT-4) [%]	inhibition at 10 µM (NCI-H322M) [%]	inhibition at 10 µM (PC-3) [%]	inhibition at 10 µM (RPMI-8226) [%]	inhibition at 10 µM (SK-MEL-28) [%]	inhibition at 10 µM (SK-MEL-5) [%]	inhibition at 10 µM (SNB-19) [%]	inhibition at 10 µM (SW-620) [%]	inhibition at 10 µM (TK-10) [%]	inhibition at 10 µM (UACC-257) [%]	other results
CCOc1ccc(/N=N/c2sc(Nc3cccc(Nc4nc(C)c(/N=N/c5ccc(OCC)cc5)s4)c3)nc2C)cc1 [5b, N^1,N^3-bis(5-((4-ethoxyphenyl)diazinyl)-4-methylthiazol-2-yl)benzene-1,3-diamine]	1.1	8.3	-13.9	-5.1	8.4	8.9	25.1	2.2	6.7	4.3	-2.2	11.4	6.2	-7.2	2.5	0.8	11.5	-0.3	-0.2	-9.2	inhibition at 10 µM (UACC-62): 20.5%
CC(=O)c1sc(Nc2cccc(Nc3nc(C)c(C(C)=O)s3)c2)nc1C [3b, 1,1’-(2,2’-(1,3-Phenylenebis(azanediyl))bis(4-methylthiazole-5,2-diyl))diethanone]	63.5	71.9	38.8	22.3	55.1	65.8	36.4	47.3	19.3	45	61.7	38.3	48.7	32.1	28.5	44.2	9.1	37.5	46.4	11.3	inhibition at 10 µM (UACC-62): 51.2%
c1ccc(/N=c2\scc(-c3ccccc3)n2-c2cccc(-n3c(-c4ccccc4)cs/c3=N\c3ccccc3)c2)cc1 [8a, N,N’-(3,3’-(1,3-phenylene)bis(4-phenylthiazole-3(3H)-yl-2(3H)-ylidene))dianiline]	3	25.4	-0.9	-21.3	-4.7	-4.4	14.5	4.2	-4.1	9	-5.5	1.8	21.8	-0.5	-3.6	4	-5.9	-0.4	-38.8	-11.8	inhibition at 10 µM (UACC-62): 20.3%
NC(=S)Nc1cccc(NC(N)=S)c1 [compound 2, 1,1′-(1,3-phenylene)bis(thiourea)]	3.7	20.3	3.6	-36.7	4.9	0.9	-4.5	-5	10.3	13.5	10.3	11.7	-2.4	-9.5	-3.8	8.6	11.7	-6.9	-7.3	1.9	inhibition at 10 µM (UACC-62): 29.5%
c1ccc(-c2csc(Nc3cccc(Nc4nc(-c5ccccc5)cs4)c3)n2)cc1 [6a, N^1,N^3-bis(4-phenylthiazol-2-yl)benzene-1,3-diamine]	63.8	65.1	61.4	16.5	69.5	34.1	56.3	43.5	52	60.8	86.3	41.9	67.9	50.7	39.1	79	42	33.8	31.4	53.9	inhibition at 10 µM (UACC-62): 49.7%
Cc1nc(Nc2cccc(Nc3nc(C)c(N=Nc4ccccc4)s3)c2)sc1N=Nc1ccccc1 [5a, N^1,N^3-bis(4-methyl-5-(phenyldiazenyl)thiazol-2-yl)benzene-1,3-diamine]	38.3	54.8	12.3	-4.9	21	5.5	-4	19.8	35.1	29.4	32.6	22.8	-3.3	-9.4	2.5	8.5	42.6	9.4	2.9	2.7	inhibition at 10 µM (UACC-62): 30.9%
